For series [1], the target named is T1, PfSpdS (Plasmodium falciparum, UniProt Q8II73). Conditions: cited from earlier work; for IC50: P. falciparum, read-out: Enzyme inhibition, IC50.
The target of series [2] is T1, PfSpdS. As to the kind of experiment: biochemical. The following applies: for inhibition at 100 µM: read-out: % Inhibition (at 100 μM); for fold difference in IC50 between compound 8 and compound 9: PfSpdS; for pseudo-substrate for PfSpdS: unpublished results of the authors. It counts as biochemical.
Method: A 29 amino acid N-terminus deletion mutant of PfSpdS cloned into pTRCHisB (Invitrogen) was expressed in E. coli BLR (DE3), purified and assayed as described by Haider et al. [18]. […] Stock solutions of the inhibitors were prepared in dddH2O. For the 100 μM assays, 1 μg purified PfSpdS, 50 μM RS-dcAdoMet, 100 nCi [2,3-^3H] putrescine hydrochloride (60 Ci/mmol; American Radiolabelled Chemicals, Inc, Minnesota, USA) and 50 μM unlabelled putrescine dihydrochloride (Sigma) were used. […] All inhibition assays were performed in triplicate.
Series [3] has as its system mammalian SpdS. The following applies: cited from earlier work; for IC50: Mammalian, read-out: Enzyme inhibition, IC50.
Series [4] relates to mammalian SpdS. As to the kind of experiment: Mammalian spermidine synthase enzyme inhibition. The class given is biochemical.
For series [5], the system named is mammalian spermine synthase. Set-up: method as in Shirahata et al. [22]. Conditions: ref Shirahata et al. [22], cited from earlier work.
Series [6] concerns the molecule itself. As to the kind of experiment: crystal structure; hanging drop vapour diffusion, 293 K; 25% PEG3350, 0.1 M MES pH 5.6, 0.1 M (NH4)2SO4; protein pre-incubated with 2.5 mM compound 8 and MTA; space group C121, three molecules in the asymmetric unit; interface analysed with PISA.
[7] abbreviates: ref Lakanen et al. [21], Pegg et al. [38].
[8] abbreviates: 100 μM compound, PfSpdS activity inhibited compared to untreated enzyme, mean ± SEM, 100 µM.

“Also recorded” adds a separate entry of the source. Where two headings read alike, the source gives them in different places. Peptide text beside a SMILES is read from it.

By IC50 is commonly meant the concentration needed to halve the response being measured. As usually defined, the inhibition is the relative decrease from the control value, in per cent. The Km is the concentration of substrate that gives half-maximal velocity. What is called Ki is a dissociation constant, usually derived from enzyme kinetics or from competition with a known ligand.

T1 sequence (Q8II73 entry or part of it): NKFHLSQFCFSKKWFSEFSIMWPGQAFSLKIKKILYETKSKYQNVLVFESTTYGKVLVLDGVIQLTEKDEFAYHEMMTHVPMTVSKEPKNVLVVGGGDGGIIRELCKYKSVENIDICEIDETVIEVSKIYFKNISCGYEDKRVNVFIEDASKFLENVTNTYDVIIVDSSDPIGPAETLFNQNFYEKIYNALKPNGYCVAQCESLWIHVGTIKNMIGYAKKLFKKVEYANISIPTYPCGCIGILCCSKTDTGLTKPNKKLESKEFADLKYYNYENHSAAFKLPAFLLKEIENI

With `C[C@H]1CC[C@H](N)CC1` [4MCHA, trans-4-methylcyclohexylamine], the IC50 on PfSpdS [1] (ref Haider et al. [18]) was 1.4 ± 0.1 µM; in the series on mammalian SpdS [3] (setting [7]), 1.7 µM. The inhibition at 100 µM at PfSpdS [2] was found to be 95.3 ± 0.4%.

With `CN1CCN(CCC(=O)NNC=C2C=CC(=O)C=C2O)CC1` [Compound 5, N’-[(2-hydroxy-4-oxocyclohexa-2,5-dien-1-ylidene)methyl]-3-(4-methylpiperazine-1,4-diium-1-yl)-propanehydrazide], the “% Inhibition (at 100 μM)” value at PfSpdS [2] (setting [8]) was “No Inhibition”; on PfSpdS [2] (100 μM compound, PfSpdS activity inhibited compared to untreated enzyme, mean ± SEM, listed as compound 5, 100 µM), “neither compound showed reduction in PfSpdS activity”.

For the molecule 5′-methylthioadenosine [MTA], the IC50 at PfSpdS [1] (ref Haider et al. [18]) was 159 ± 27 µM.

Consider `C=CCCCN` [APE, 5-amino-1-pentene], for which the IC50 is 6.5 ± 2.1 µM at PfSpdS [1] (ref Haider et al. [18]) and 1.7 µM in the series on mammalian SpdS [3] (ref Goda et al. [39]).

Consider `NCCCCCC(CCN)SCC1OC(n2cnc3c(N)ncnc32)C(O)C1O` (stereo not shown) [AdoDATO, S-adenosyl-1,8-diamino-3-thio-octane], for which the IC50 at PfSpdS [1] (ref Dufe et al. [20]) is 8.5 µM; in the series on mammalian SpdS [3] (setting [7]), 0.05 to 0.1 µM. Besides, the “fold lower IC50 for mammalian SpdS compared to the P. falciparum enzyme” value with mammalian SpdS [4] (ref [18],[20],[38]) is 170 fold. The “fold less efficient inhibitor of mammalian SpdS than adenosylspermidine” value in the series with mammalian SpdS [4] (ref [21],[38]) is recorded as 3-7 fold.

For `NCCCC[C@H](NC(=O)[C@@H](N)CCCCN)C(=O)Nc1ccc2ccccc2c1` [Compound 7, [(2S)-6-azaniumyl-1-[[(2S)-6-azaniumyl-1-(naphthalen-2-ylamino)-1-oxohexan-2-yl]amino]-1-oxohexan-2-yl]azanium], the “% Inhibition (at 100 μM)” value at PfSpdS [2] (setting [8]) was “No Inhibition”; on PfSpdS [2] (100 μM compound, PfSpdS activity inhibited compared to untreated enzyme, mean ± SEM, listed as compound 7, 100 µM) it was “showed no inhibition”.

Turning to `NCCCC[C@H](NC(=O)[C@@H](N)Cc1ccc(O)cc1)C(N)=O` [Compound 3] (H-Tyr-Lys-NH2), on PfSpdS [2] (setting [8]), the “% Inhibition (at 100 μM)” value is “No Inhibition; also recorded: did not inhibit”.

`CC1CCN(CCCN)CC1` [Compound 1, 1-(3-ammoniopropyl)-4-methylpiperidin-1-ium]: the inhibition at 100 µM on PfSpdS [2] was 17 ± 9.4%.

In the case of `CN(C[C@H](O)CN)C[C@H](O)CN1CCCCC1` [Compound 6, [(2R)-3-azaniumyl-2-hydroxypropyl]-[(2S)-2-hydroxy-3-piperidin-1-ium-1-ylpropyl]-methylazanium], the “% Inhibition (at 100 μM)” value at PfSpdS [2] (setting [8]) is “No Inhibition”; on PfSpdS [2] (100 μM compound, PfSpdS activity inhibited compared to untreated enzyme, mean ± SEM, listed as compound 6, 100 µM), “neither compound showed reduction in PfSpdS activity”.

`N[C@H]1CC[C@H](N)CC1` [trans-1,4-diaminocyclohexane]: the “pseudo-substrate for mammalian SpdS” value in the series with mammalian SpdS [3] (ref [22]) is on record as ~ 12%.

As to `C[S+](CCCN)C[C@H]1O[C@@H](n2cnc3c(N)ncnc32)[C@H](O)[C@@H]1O` (stereo partly shown) [dcAdoMet, decarboxylated S-adenosylmethionine], the Km is 35 µM at PfSpdS [1] (P. falciparum enzyme, ref [18],[20],[38], read-out: Km value of the enzyme for dcAdoMet) and 7 to 25 µM with mammalian SpdS [3] (mammalian enzyme, ref [18],[20],[38], read-out: Km value of the enzyme for dcAdoMet).

On to `NCCCNC1CCCCC1` [Compound 9, N-(3-aminopropyl)-cyclohexylamine], for which the “inhibition of mammalian spermine synthase” value in series [5] is given as “inhibitor”. In series [5] (listed as compound 9), the “inhibition of mammalian spermine synthase” value was “potent inhibitor”. Further, on PfSpdS [2], the IC50 was 7.4 ± 2.4 µM; the Ki came out at 2.8 µM; the “fold difference in IC50 between compound 8 and compound 9” value was 100 fold; the inhibition at 100 µM was determined as 88.3 ± 1.2%. Further, the “pseudo-substrate for PfSpdS” value at PfSpdS [2] is recorded as “no evidence was found”. In addition, the type of inhibition result on PfSpdS [2] (between compound and putrescine, preliminary kinetic experiments) is reported as “mixed-type competitive inhibition”. Besides, the “inhibition of mammalian SpdS” value in the series on mammalian SpdS [3] (ref Shirahata et al. [22]) was “does not inhibit”. For the same molecule, the “inhibition of mammalian SpdS” value in the series on mammalian SpdS [3] (ref Shirahata et al. [22], listed as compound 9) is “did not inhibit and not”.

With `CN1CCC(N)CC1` [Compound 2, trans-4-amino-1-methylpiperidine], the inhibition at 100 µM at PfSpdS [2] (100 μM compound, PfSpdS activity inhibited compared to untreated enzyme, mean ± SEM) is 6.9 ± 5.8%.

For the molecule `NC1CCCCC1` [Cyclohexylamine], the IC50 at PfSpdS [1] (ref Haider et al. [18]) was 19.7 ± 3.1 µM; with mammalian SpdS [3] (ref Shirahata et al. [22]), 8.1 µM.

As for `NCCCN[C@H]1CC[C@H](N)CC1` [Compound 8, N-(3-aminopropyl)-trans-cyclohexane-1,4-diamine], on PfSpdS [2], the midpoint of inhibition, the IC50, lay at 619 ± 144 µM; the “fold difference in IC50 between compound 8 and compound 9” value was determined as 100 fold; the inhibition at 100 µM was determined as 12.7 ± 9.1%; the “pseudo-substrate for PfSpdS” value was “acts as a pseudo-substrate”.

Regarding `NCCCN1CCN(CCCN)CC1` [Compound 4, 3-[4-(3-azaniumylpropyl)piperazine-1,4-diium-1-yl]propylazanium], the “% Inhibition (at 100 μM)” value at PfSpdS [2] (setting [8]) was “No Inhibition; also recorded: did not inhibit”.

B1: Plasmodium falciparum spermidine synthase lacking 39 amino acids at the N-terminus (enzyme, UniProt Q8II73 40-321, looked up)
chain: SKKWFSEFSIMWPGQAFSLKIKKILYETKSKYQNVLVFESTTYGKVLVLDGVIQLTEKDEFAYHEMMTHVPMTVSKEPKNVLVVGGGDGGIIRELCKYKSVENIDICEIDETVIEVSKIYFKNISCGYEDKRVNVFIEDASKFLENVTNTYDVIIVDSSDPIGPAETLFNQNFYEKIYNALKPNGYCVAQCESLWIHVGTIKNMIGYAKKLFKKVEYANISIPTYPCGCIGILCCSKTDTGLTKPNKKLESKEFADLKYYNYENHSAAFKLPAFLLKEIENI
notes: Plasmodium falciparum spermidine synthase (EC 2.5.1.16), protein lacking 39 amino acids at the N-terminus, cloned into the p15-TEV-LIC vector, from SGC Toronto; Crystallised with compound 8 and MTA; Three molecules in the asymmetric unit; subunits B and C form the homodimer; also called PfSpdS; 39 amino acid N-terminal truncated PfSpdS protein; source: expression and isolation according to Dufe …
For B1, the binding result in series [6] was “binds”.

These data come from paper PMC4342090, “A novel inhibitor of Plasmodium falciparum spermidine synthase: a twist in the tail” (Malaria Journal, 2015).
